The values that follow come from PubChem BioAssay (NCI).

The term GI50 denotes the concentration giving 50% growth inhibition. What is called TGI is the concentration giving total growth inhibition. A higher TGI goes with lower sensitivity of the cells.

Holding throughout (assay): DTP human tumour cell line panel, 48 h
In test [1] the test system is ACHN renal.
Test [2] deals with NCI-H522 lung.
In test [3] the test system is BT-549 breast.
For test [4], the system named is OVCAR-8 ovarian.
Test [5] deals with SNB-19 CNS.
Test [6] concerns U251 CNS.
Test [7] relates to SNB-75 CNS.
Test [8] deals with RPMI-8226 leukemia.
Test [9] deals with UO-31 renal.
Test [10] deals with MDA-MB-231 breast.

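Grown in 96-well plates, cells were treated for 48 hours with each compound at five concentrations. Insufficient inhibition: endpoint recorded as highest concentration tested. The concentration for 50% growth inhibition is given as GI50. The concentration for full growth arrest is given as TGI.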

Take `O=C(CCl)Nc1ccccc1SCc1cc(Cl)cc2c1OCOC2`: the GI50 is 10.6 µM in test [1]; 1.85 µM in test [2]; 3.52 µM in [3]; 13 µM in test [4]; 14.1 µM in test [5]; 16.1 µM in test [6]. For the same molecule, the GI50 in test [7] is 8.55 µM; in test [8] it was 6.96 µM; in test [9], 2.95 µM; in [10] it was 5.97 µM. For the same molecule, the concentration for total growth inhibition (TGI) in [1] came out at 23.8 µM; in test [2], 4 µM; in test [3] it was 11.5 µM; in test [4], 30.2 µM; in test [5], 28.9 µM; in [6] it was 31.3 µM. The concentration for total growth inhibition (TGI) came to 23.3 µM in test [7], 40.6 µM in test [8], 15 µM in test [9] and 28 µM in test [10].

As for `CC1=C(C(=O)Nc2ccc(F)c(Cl)c2)C(c2cccc(O)c2)NC(=S)N1` (stereo not given), the GI50 in test [1] was 24.5 µM; in test [2], 12.4 µM; in test [3], 12.1 µM; in [4], 28.5 µM; in test [5], above 50 µM; in [6] it was 16.6 µM. The GI50 in test [7] was 14.4 µM; in test [8], 30.1 µM; in test [9], above 50 µM; in test [10] it was 10.9 µM. For the same molecule, the TGI is above 50 µM in test [1]; above 50 µM in test [2]; 36.8 µM in [3]; above 50 µM in [4]; above 50 µM in [5]; above 50 µM in [6]. The TGI in test [7] was 41.3 µM; in test [8], above 50 µM; in test [9], above 50 µM; in [10], 30.2 µM.

With `COc1ccc(/C=C/C(=O)/C=C(/C=C/c2ccc(OC)c(OC)c2)OB(F)F)cc1OC`, the concentration for 50% growth inhibition (GI50) in [1] was 0.352 µM; in test [2], 0.291 µM; in test [3], 1.13 µM; in test [4], 0.417 µM; in test [5], 1.63 µM; in [6], 0.807 µM. Moreover, the GI50 in test [7] is 1.02 µM; in test [8], 0.427 µM; in test [9], 0.652 µM; in test [10], 0.621 µM. The TGI in test [1] is 1.98 µM; in test [2], 1.45 µM; in [3], 2.68 µM; in test [4], above 100 µM; in [5], 5.73 µM; in test [6], 2.31 µM. The TGI amounted to 8.06 µM in test [7], 2.81 µM in test [8], 3.72 µM in test [9] and 4.08 µM in test [10].

As for `COc1cc(/C=C2\CC(C)CC3C2=NN(c2ccccc2)C3c2cc(OC)c(OC)c(OC)c2)cc(OC)c1OC` (stereo not given), the GI50 in [1] is 11 µM; in test [2], 10.2 µM; in [3], 10.1 µM; in test [4], 10.2 µM; in test [5] it was 21.7 µM; in test [6], 9.77 µM. In addition, the GI50 in [7] is 25.4 µM; in test [8], 3 µM; in test [9] it was 22 µM; in test [10], 14.4 µM. Besides, the TGI in test [1] is 44.6 µM; in [2], 59.3 µM; in test [3], 39.9 µM; in [4], above 100 µM; in [5], above 100 µM; in test [6] it was 39 µM. Besides, the TGI in test [7] is 87.5 µM; in [8], 26.5 µM; in test [9], above 100 µM; in test [10], 71 µM.

`O=C1C(Cl)=C(Oc2ccccc2)C(=O)c2ccccc21`: the GI50 in [1] is 1.63 µM; in test [2], 1.51 µM; in test [3], 2.86 µM; in test [4], 14.3 µM; in test [5] it was 4.11 µM; in test [6] it was 3.57 µM. Further, the GI50 was 1.93 µM in test [7], 2.69 µM in [8], 1.23 µM in test [9] and 6.51 µM in test [10]. Moreover, the total growth inhibition concentration (TGI) amounted to 3.14 µM in [1]; 2.96 µM in [2]; 9.3 µM in test [3]; 36.8 µM in test [4]; 17.4 µM in test [5]; 13.4 µM in [6]. For the same molecule, the TGI in [7] stood at 12.9 µM; in [8] it was 11.4 µM; in test [9], 3.23 µM; in test [10], 21.1 µM.

Turning to `CCOC(=O)Oc1c(OC)cc(C(=O)c2ccc(OC)c(OC(=O)CCl)c2OC)cc1OC`, the GI50 in test [1] was 3.66 µM; in test [2], 0.264 µM; in test [3], 0.996 µM; in test [4], 2.65 µM; in test [5], 0.75 µM; in [6], 0.926 µM. The GI50 in [7] is 0.528 µM; in test [8] it was 1.98 µM; in test [9], 3.07 µM; in test [10], 1.9 µM. Further, the concentration for total growth inhibition (TGI) is above 100 µM in [1]; 1.31 µM in test [2]; 9.5 µM in [3]; above 100 µM in test [4]; above 100 µM in [5]; above 100 µM in test [6]. The TGI in test [7], in [8], in test [9] and in test [10] was above 100 µM throughout.

Take `CC(C)(C)[Si](C)(C)OC1[C@@H](O[Si](C)(C)C(C)(C)C)[C@@H](CNC(=O)NC(=O)NC(=O)CI)O[C@H]1n1cnc2c(NC(=O)Nc3ccccc3)ncnc21` (stereo not given in full): the GI50 in test [1] is 1.41 µM; in test [2], 0.0262 µM; in test [3], 6.89 µM; in [4], 0.275 µM; in [5], 12.5 µM; in test [6], 0.443 µM. In addition, the GI50 was 0.651 µM in test [7], 0.285 µM in [8], 0.0888 µM in test [9] and 0.251 µM in test [10]. For the same molecule, the TGI in [1] was 9.75 µM; in test [2], 0.0522 µM; in [3], 13.9 µM; in [4], 0.925 µM; in test [5], 38.2 µM; in test [6], 1.88 µM. In addition, the TGI in test [7] was found to be 3.17 µM; in test [8], 1.76 µM; in [9] it was 0.178 µM; in test [10], 0.995 µM.
